Columns and labels:
[1] = system: GT1-7 cells; experiment: FAM-Aβ42 internalization after LRP1 siRNA knockdown, FACS; assay type: cell-based; settings: 500 nM FAM-Aβ42, 37°C, 4 h, 72 h after LRP1 siRNA; FACS of pronase-treated cells
Procedure: (§1) To rule out cell type-specific effects and artifacts due to the expression of LRP1 minireceptor, we performed similar FAM-Aβ42 uptake experiments in GT1-7 neuronal cells with reduced endogenous LRP1 levels by siRNA knockdown (Fig. 3A), and in mouse embryonic fibroblasts from both wild-type (MEF1) and LRP1 knockout mice (MEF2) (Fig. 3B). GT1-7 cells were plated and treated as indicated in the Experimental Procedures and GT1-7 and MEF cells were incubated with 500 nM of FAM-Aβ42 at 37°C for 4 h. Steady-state levels of intracellular Aβ42 were determined by flow cytometric analysis of pronase-treated cells. […]
(§2) Figure 3 LRP1 mediates internalization and accumulation of Aβ42 in GT1-7 and MEF cells. […] After 72 h, cells were treated with 500 nM FAM-Aβ42 for 4 h and intracellular Aβ42 was determined by flow cytometric analyses of pronase-treated cells as described in the Experimental Procedures. […] Wild type (MEF1) and LRP1 knockout (MEF2) fibroblasts were treated with 500 nM FAM-Aβ42 for 4 h, and intracellular Aβ42 was determined by flow cytometric analyses. ** p<0.01, t-test. n = 3. C, cell lysates from GT1-7 and MEF cells treated as in A and B, analyzed by 7.5% SDS-PAGE, and Western blotted with anti-LRP1 antibodies.
(§3) For quantification of Aβ uptake experiments, stable N2a cells were plated into 12-well plates at 16,250 cells/cm^2 and grown overnight. […]

[2] = system: MEF cells; experiment: FAM-Aβ42 internalization in wild-type (MEF1) and LRP1 knockout (MEF2) fibroblasts, FACS; assay type: cell-based, mouse; settings: 500 nM FAM-Aβ42, 37°C, 4 h, n = 3, p<0.01
Procedure: as §1, §2, §3

Substance: FAM-Aβ42: FAM-Aβ42 peptide (23526) from Anaspec; amyloid-β 42 with carboxyfluorescein at the N-terminal region
- internalization of FAM-Aβ42 in cells with decreased LRP1 levels vs scrambled siRNA control [1]: decrease
- internalization of FAM-Aβ42 in MEF2 (LRP1 knockout) compared to MEF1 (wild type) [2]: decrease

— PMC2912373, “Low-Density Lipoprotein Receptor-Related Protein 1 (LRP1) Mediates Neuronal Aβ42 Uptake and Lysosomal Trafficking” (PLoS ONE, 2010)
